Assay results reported in the CheMixHub ionic liquid set.

Test: xn = mol fraction of the nth substance listed

CCCC[n+]1ccn(C)c1.O=[N+]([O-])[O-] + O
Conditions	viscosity [mPa·s]
295.15 K, 101 kPa, x2 = 0.1659	73
308 K, 100 kPa, x1 = 0.4463	14.67
308 K, 100 kPa, x1 = 0.6298	29.49
313 K, 100 kPa, x1 = 0.05634	1.464
313 K, 100 kPa, x1 = 0.08219	2.196
313 K, 100 kPa, x1 = 0.2637	6.31

CC[n+]1ccn(C)c1.F[P-](F)(F)(F)(F)F + CC(C)C[C@H](N)C(=O)O + O
100 kPa
Conditions	electrical conductivity, 298.15 K [S/m]	electrical conductivity, 303.15 K [S/m]	electrical conductivity, 308.15 K [S/m]	viscosity, 298.15 K [mPa·s]	viscosity, 303.15 K [mPa·s]	viscosity, 308.15 K [mPa·s]
x2 = 0.0001802, x1 = 1.802e-05	0.011	0.0123	0.0135	0.925	0.857	0.783
x2 = 0.0001803, x1 = 5.405e-05	0.0293	0.0326	0.0354	0.94	0.862	0.788
x2 = 0.0001804, x1 = 9.008e-05	0.0464	0.0517	0.0561	0.955	0.866	0.793
x2 = 0.0004522, x1 = 1.801e-05	0.0109	0.0122	0.0133	0.933	0.864	0.791
x2 = 0.0004524, x1 = 5.403e-05	0.0295	0.0328	0.0353	0.946	0.868	0.795
x2 = 0.0004526, x1 = 9.005e-05	0.0461	0.0514	0.0557	0.962	0.876	0.802
x2 = 0.0007258, x1 = 1.801e-05	0.0111	0.0122	0.0135	0.94	0.872	0.799
x2 = 0.0007262, x1 = 5.402e-05	0.0293	0.0326	0.0351	0.957	0.879	0.805
x2 = 0.0007265, x1 = 9.003e-05	0.0458	0.051	0.0558	0.973	0.885	0.812
x2 = 0.0009976, x1 = 1.8e-05	0.0106	0.0118	0.013	0.947	0.88	0.806
x2 = 0.000998, x1 = 5.4e-05	0.0288	0.032	0.0348	0.964	0.885	0.811
x2 = 0.0009985, x1 = 9e-05	0.0451	0.0505	0.055	0.981	0.895	0.82
x2 = 0.001273, x1 = 1.8e-05	0.011	0.0122	0.0134	0.955	0.888	0.814
x2 = 0.001273, x1 = 5.399e-05	0.0285	0.0318	0.0345	0.973	0.895	0.821
x2 = 0.001274, x1 = 8.998e-05	0.0449	0.0502	0.0545	0.991	0.904	0.827
x2 = 0.001546, x1 = 1.799e-05	0.0112	0.0123	0.0136	0.961	0.895	0.822
x2 = 0.001547, x1 = 5.397e-05	0.0283	0.0315	0.0344	0.982	0.905	0.831
x2 = 0.001547, x1 = 8.995e-05	0.0445	0.0493	0.0541	1	0.912	0.841

CC[n+]1ccn(CCOC)c1.N#C[S-] + CCO
100 kPa
Conditions	viscosity [mPa·s]
293.15 K, x1 = 0.1	2.15
293.15 K, x1 = 0.3995	8.78
293.15 K, x1 = 0.6	20
293.15 K, x1 = 0.797	42.3
298.15 K, x1 = 0.3002	4.94
303.15 K, x1 = 0.3002	4.39
303.15 K, x1 = 0.8964	35.9
303.15 K, x1 = 1	44.3
308.15 K, x1 = 0.1999	2.58
308.15 K, x1 = 0.7	16.96
308.15 K, x1 = 0.797	23.4
308.15 K, x1 = 0.8964	29.6
308.15 K, x1 = 1	36
313.15 K, x1 = 0.3995	5.28
313.15 K, x1 = 0.797	19.8
318.15 K, x1 = 0.1999	2.14

CCCC[n+]1ccn(C)c1.O=[N+]([O-])[O-] + CCCC(C)O
100 kPa
Conditions	viscosity [mPa·s]
293.15 K, x1 = 0.8501	83
303.15 K, x1 = 0.3499	6.6
318.15 K, x1 = 0.4399	5.9
323.15 K, x1 = 0.5604	7.1
323.15 K, x1 = 0.6505	9.7

CCCC[n+]1ccn(C)c1.O=[N+]([O-])[O-] + CCCCCCO
viscosity [mPa·s], 100 kPa
Conditions	293.15 K	303.15 K	313.15 K	323.15 K
x1 = 0.0811	6.41	4.47	3.24	2.45
x1 = 0.1741	7.98	5.21	3.72	2.75
x1 = 0.2418	9.59	6.02	4.21	3.02
x1 = 0.3587	13.3	8.24	5.33	3.63
x1 = 0.4426	17.5	10.69	6.48	4.22
x1 = 0.5532	26.6	15.4	8.94	5.49
x1 = 0.6538	40.2	23	12.8	7.56
x1 = 0.7414	60.7	33.8	18.9	10.83
x1 = 0.8519	103.2	58.4	33.4	18.5
x1 = 0.9367	162	90.8	53.2	30.6
x1 = 1	224	125	75.1	45.2

CCOS(=O)(=O)[O-].CC[n+]1ccn(C)c1 + CCO + O
298.15 K, 101 kPa
Conditions	viscosity [mPa·s]
x2 = 0.0425, x3 = 0.9493	1.473
x2 = 0.0462, x3 = 0.9365	1.767
x2 = 0.054, x3 = 0.9172	2.239
x2 = 0.0603, x3 = 0.8923	2.787
x2 = 0.0723, x3 = 0.8613	3.311
x2 = 0.0829, x3 = 0.8208	4.237
x2 = 0.0885, x3 = 0.9037	2.015
x2 = 0.0898, x3 = 0.1724	43.71
x2 = 0.0906, x3 = 0.3653	26.4
x2 = 0.1018, x3 = 0.8819	2.162
x2 = 0.1162, x3 = 0.8569	2.603
x2 = 0.1307, x3 = 0.8254	2.848
x2 = 0.1473, x3 = 0.8454	2.302
x2 = 0.1532, x3 = 0.7862	3.265
x2 = 0.1618, x3 = 0.823	2.558
x2 = 0.1776, x3 = 0.736	3.981
x2 = 0.1798, x3 = 0.7952	2.666
x2 = 0.1867, x3 = 0.3267	19.71
x2 = 0.203, x3 = 0.4762	11.23
x2 = 0.2036, x3 = 0.7562	3.061
x2 = 0.213, x3 = 0.6721	4.695
x2 = 0.2156, x3 = 0.7777	2.443
x2 = 0.2354, x3 = 0.7098	3.148
x2 = 0.2358, x3 = 0.7503	2.537
x2 = 0.2581, x3 = 0.7192	2.751
x2 = 0.2884, x3 = 0.6757	2.836
x2 = 0.2972, x3 = 0.6968	2.342
x2 = 0.3097, x3 = 0.4125	8.578
x2 = 0.3172, x3 = 0.5831	4.026
x2 = 0.3196, x3 = 0.668	2.391
x2 = 0.3235, x3 = 0.6281	3.109
x2 = 0.3439, x3 = 0.6361	2.653
x2 = 0.3528, x3 = 0.1226	18.65
x2 = 0.354, x3 = 0.5781	3.217
x2 = 0.3804, x3 = 0.5884	2.55
x2 = 0.3862, x3 = 0.6086	2.334
x2 = 0.4044, x3 = 0.3559	6.856
x2 = 0.4138, x3 = 0.5756	2.347
x2 = 0.4195, x3 = 0.5389	2.799
x2 = 0.4403, x3 = 0.5426	2.299
x2 = 0.4582, x3 = 0.4849	2.967
x2 = 0.4657, x3 = 0.1012	12.87
x2 = 0.4793, x3 = 0.4944	2.444
x2 = 0.4911, x3 = 0.5046	2.027
x2 = 0.521, x3 = 0.4447	2.385
x2 = 0.5486, x3 = 0.4376	2.109
x2 = 0.5636, x3 = 0.3905	2.443
x2 = 0.6042, x3 = 0.159	5.533
x2 = 0.6339, x3 = 0.3399	1.976
x2 = 0.6484, x3 = 0.2101	3.5
x2 = 0.6523, x3 = 0.3414	1.735
x2 = 0.6548, x3 = 0.0654	6.067
x2 = 0.6675, x3 = 0.2976	2.007
x2 = 0.7086, x3 = 0.2767	1.737
x2 = 0.7178, x3 = 0.241	2.045
x2 = 0.7723, x3 = 0.2038	1.728
x2 = 0.8545, x3 = 0.0276	2.451
x2 = 0.8653, x3 = 0.125	1.406
x2 = 0.9072, x3 = 0.0792	1.343
x2 = 0.9667, x3 = 0.0134	1.317
